Experimental data as given in US8871753B2, “Macrocyclic compounds and their use as kinase inhibitors” (Incyte Corporation, priority 2008, dated 2014).
Counter-ions that a name gives are not always drawn. Like-named read-outs stand apart in the source and are kept apart here.

How the values were obtained:
Type in all cases: biochemical
[1] = biological target: T1, human JAK1 (a.a. 837-1142) (Homo sapiens, UniProt P23458); test: In vitro JAK kinase assay (HTRF, phosphorylation of a biotinylated peptide), JAK1; conditions: read-out: JAK1 IC50
T1 construct: human JAK1 (a.a. 837-1142); His tag (N); made in house; host or cells: insect cells (baculovirus)
In short: (§1)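 Kinase reactions ran at room temperature for 1 h with ATP matched per isoform (JAK1 90 μM, JAK2 30 μM, JAK3 3 μM). After an EDTA stop, the phosphorylated biotin-peptide was read by HTRF using Eu-Py20 and SA-APC after 40 min binding.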

[2] = biological target: T2, human JAK2 (a.a. 828-1132) (Homo sapiens, UniProt O60674); test: In vitro JAK kinase assay (HTRF, phosphorylation of a biotinylated peptide), JAK2
T2 construct: JAK2 (a.a. 828-1132); His tag (N); made in house; host or cells: insect cells (baculovirus)
In short: as §1

[3] = biological target: T3, human JAK3 (a.a. 781-1124) (Homo sapiens, UniProt P52333); test: In vitro JAK kinase assay (HTRF, phosphorylation of a biotinylated peptide), JAK3
T3 construct: JAK3 (a.a. 781-1124); His tag (N); made in house; host or cells: insect cells (baculovirus)
In short: as §1

[4] = biological target: TYK2 (Homo sapiens, UniProt P29597); test: TYK2 kinase inhibition (Table A1)
[5] = biological target: T4, Recombinant Human Anaplastic Lymphoma Kinase (Homo sapiens, UniProt Q9UM73); test: ALK HTRF kinase assay
T4 construct: purchased Invitrogen, Carlsbad, Calif
In short: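 Readout was HTRF between a Eu-W1024 anti-phosphotyrosine antibody and streptavidin-APC bound to biotinylated peptide phosphorylated by recombinant human ALK. IC50 values came from a four-parameter logistic fit.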

[6] = Table B1, cells without percent sign
[7] = compound at a concentration of 500 nM or 1 mM (not specified), cells shown as percentage
[8] = method AA1 (90 μM ATP) or AA2 (1000 μM ATP), not stated per value
[9] = method AA1 (30 μM ATP) or AA2 (1000 μM ATP), not stated per value
[10] = method AA1 (3 μM ATP) or AA2 (1000 μM ATP), not stated per value
[11] = compound at 500 nM or 1 mM, 90 μM ATP

Sequence of TYK2 (P29597 whole entry): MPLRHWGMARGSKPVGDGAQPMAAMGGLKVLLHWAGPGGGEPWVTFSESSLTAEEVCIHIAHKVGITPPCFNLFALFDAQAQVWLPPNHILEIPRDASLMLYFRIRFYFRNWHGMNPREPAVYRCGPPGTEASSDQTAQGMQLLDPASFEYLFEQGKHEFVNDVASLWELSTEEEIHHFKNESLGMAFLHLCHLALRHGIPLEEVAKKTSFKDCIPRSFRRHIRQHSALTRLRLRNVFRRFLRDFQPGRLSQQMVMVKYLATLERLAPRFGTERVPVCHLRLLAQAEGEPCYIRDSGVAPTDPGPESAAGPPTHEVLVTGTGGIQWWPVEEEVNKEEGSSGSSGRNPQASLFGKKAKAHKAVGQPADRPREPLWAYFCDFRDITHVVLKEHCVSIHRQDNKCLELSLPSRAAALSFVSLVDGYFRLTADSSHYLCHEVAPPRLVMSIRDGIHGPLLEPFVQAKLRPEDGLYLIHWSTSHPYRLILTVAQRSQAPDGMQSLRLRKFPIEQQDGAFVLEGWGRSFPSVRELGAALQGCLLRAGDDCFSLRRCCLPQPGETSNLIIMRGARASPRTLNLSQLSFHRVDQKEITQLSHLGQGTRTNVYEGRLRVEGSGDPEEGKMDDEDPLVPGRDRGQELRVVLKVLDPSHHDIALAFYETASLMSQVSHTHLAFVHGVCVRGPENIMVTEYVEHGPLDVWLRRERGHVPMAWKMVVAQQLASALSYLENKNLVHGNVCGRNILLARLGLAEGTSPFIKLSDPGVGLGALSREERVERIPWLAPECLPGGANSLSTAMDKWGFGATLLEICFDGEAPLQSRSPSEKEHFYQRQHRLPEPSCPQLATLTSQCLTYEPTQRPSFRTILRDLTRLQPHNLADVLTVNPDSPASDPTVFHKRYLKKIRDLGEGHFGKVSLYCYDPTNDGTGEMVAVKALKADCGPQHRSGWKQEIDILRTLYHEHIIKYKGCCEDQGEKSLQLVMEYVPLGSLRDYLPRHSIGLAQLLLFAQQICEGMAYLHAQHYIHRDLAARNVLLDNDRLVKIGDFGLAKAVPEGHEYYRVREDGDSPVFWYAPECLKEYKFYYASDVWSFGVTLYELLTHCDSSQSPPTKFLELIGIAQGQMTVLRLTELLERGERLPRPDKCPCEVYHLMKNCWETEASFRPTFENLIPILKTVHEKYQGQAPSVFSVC
T2 sequence (O60674 828-1132): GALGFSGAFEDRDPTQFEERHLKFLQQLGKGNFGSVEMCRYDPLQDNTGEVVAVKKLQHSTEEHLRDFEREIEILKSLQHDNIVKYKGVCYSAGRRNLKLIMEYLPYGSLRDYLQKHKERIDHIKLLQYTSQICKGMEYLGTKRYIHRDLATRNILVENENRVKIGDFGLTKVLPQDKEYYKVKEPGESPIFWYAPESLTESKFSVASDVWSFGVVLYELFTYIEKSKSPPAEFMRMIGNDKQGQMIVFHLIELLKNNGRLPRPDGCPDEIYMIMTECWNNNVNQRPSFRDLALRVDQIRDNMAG
T1 sequence (P23458 849-1154): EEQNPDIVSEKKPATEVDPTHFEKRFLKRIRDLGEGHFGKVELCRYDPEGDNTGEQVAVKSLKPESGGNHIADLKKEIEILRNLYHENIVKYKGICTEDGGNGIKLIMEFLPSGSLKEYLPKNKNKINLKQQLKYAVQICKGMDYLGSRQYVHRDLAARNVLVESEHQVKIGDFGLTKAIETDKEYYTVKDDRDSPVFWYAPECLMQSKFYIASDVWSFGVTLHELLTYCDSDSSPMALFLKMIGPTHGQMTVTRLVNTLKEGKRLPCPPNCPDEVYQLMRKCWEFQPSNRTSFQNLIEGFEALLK
T4 sequence (Q9UM73 19-1620): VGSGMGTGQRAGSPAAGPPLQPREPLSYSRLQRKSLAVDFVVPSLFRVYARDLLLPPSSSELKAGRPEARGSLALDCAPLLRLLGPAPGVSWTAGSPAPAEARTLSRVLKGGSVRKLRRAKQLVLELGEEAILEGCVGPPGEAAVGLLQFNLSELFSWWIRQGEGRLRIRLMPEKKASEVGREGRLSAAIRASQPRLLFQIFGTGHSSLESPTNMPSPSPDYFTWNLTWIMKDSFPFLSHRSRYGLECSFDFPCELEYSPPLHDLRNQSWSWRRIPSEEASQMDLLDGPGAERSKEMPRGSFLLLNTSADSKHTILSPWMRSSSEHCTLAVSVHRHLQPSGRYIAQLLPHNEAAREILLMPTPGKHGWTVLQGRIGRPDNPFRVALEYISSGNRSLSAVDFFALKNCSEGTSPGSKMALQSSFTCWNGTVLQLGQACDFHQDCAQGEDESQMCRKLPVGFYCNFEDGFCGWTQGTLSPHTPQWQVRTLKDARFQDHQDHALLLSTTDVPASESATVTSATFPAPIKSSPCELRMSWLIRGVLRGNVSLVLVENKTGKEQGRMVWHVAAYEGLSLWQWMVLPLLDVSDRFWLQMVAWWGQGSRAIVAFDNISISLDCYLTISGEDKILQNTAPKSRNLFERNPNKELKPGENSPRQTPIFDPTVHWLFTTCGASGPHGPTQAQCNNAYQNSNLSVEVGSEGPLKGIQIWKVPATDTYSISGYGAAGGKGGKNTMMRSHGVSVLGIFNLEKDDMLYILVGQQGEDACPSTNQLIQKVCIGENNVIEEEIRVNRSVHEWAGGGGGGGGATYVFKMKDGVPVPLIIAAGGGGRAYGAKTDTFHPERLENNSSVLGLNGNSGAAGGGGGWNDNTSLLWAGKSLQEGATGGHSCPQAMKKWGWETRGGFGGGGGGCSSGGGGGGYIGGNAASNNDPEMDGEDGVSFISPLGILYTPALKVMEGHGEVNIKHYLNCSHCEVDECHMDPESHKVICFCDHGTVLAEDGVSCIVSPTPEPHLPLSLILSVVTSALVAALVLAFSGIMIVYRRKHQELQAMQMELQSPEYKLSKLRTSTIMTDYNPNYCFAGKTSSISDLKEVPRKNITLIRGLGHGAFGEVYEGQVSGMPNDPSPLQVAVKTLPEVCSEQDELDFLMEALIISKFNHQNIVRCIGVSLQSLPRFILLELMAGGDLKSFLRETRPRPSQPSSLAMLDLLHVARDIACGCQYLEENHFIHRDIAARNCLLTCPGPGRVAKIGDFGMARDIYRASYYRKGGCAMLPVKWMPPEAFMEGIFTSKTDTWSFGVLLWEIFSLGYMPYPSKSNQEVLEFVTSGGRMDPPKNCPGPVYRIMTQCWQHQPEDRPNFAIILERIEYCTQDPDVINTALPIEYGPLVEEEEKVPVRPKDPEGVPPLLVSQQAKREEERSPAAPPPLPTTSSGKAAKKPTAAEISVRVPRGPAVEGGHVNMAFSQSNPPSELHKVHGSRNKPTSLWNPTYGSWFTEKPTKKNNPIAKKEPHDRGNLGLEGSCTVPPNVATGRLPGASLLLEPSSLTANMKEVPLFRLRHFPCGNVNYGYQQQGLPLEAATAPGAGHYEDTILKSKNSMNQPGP
T3 sequence (P52333 781-1124): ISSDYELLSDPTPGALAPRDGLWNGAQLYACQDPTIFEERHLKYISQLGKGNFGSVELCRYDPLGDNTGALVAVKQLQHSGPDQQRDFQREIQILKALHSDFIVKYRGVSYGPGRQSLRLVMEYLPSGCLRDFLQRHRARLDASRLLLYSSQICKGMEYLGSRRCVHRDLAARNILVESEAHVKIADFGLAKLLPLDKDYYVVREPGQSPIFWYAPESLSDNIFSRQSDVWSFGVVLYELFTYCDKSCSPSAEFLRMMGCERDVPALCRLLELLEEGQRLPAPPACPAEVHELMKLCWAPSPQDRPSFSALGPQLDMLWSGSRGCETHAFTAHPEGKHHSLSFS

| SMILES | IC50 ([1]; Table B1) [nM] | IC50 ([2]; Table B1) [nM] | IC50 ([3]; Table B1) [nM] | IC50 ([4]; Table B1) [nM] | IC50 [1, 8] [nM] | IC50 [2, 9] [nM] | IC50 [3, 10] [nM] | IC50 [4] [nM] | ALK % of inhibition at a concentration of 500 nM or 1 mM [5, 11] [%] | other results |
| --- | --- | --- | --- | --- | --- | --- | --- | --- | --- | --- |
| O=C(Nc1cc2cc(c1)OCCSc1cccc(c1)Nc1nc(ncc1Cl)N2)c1ccc2occc2c1 [Example D61, N-[6-Chloro-17-oxa-14-thia-2,4,8,24-tetraazatetracyclo[16.3.1.1(3,7).1(9,13)]tetracosa-1(22),3(24),4,6,9(23),10,12,18,20-nonaen-20-yl]-1-benzofuran-5-carboxamide trifluoroacetate] |  |  |  |  |  |  |  |  |  | IC50 ([1]; Table D1): 18 nM; IC50 ([2]; Table D1): 2.1 nM; IC50 ([3]; Table D1): 41 nM; IC50 ([4]; Table D1): 8 nM; IC50 ([5]; Table D1, 90 μM ATP): > 10000 nM |
| CC(C)N1CCC(CC(=O)Nc2ccc3cc2CCc2cncc(c2)Nc2ncc(Cl)c(n2)N3)CC1 [Example A140, N-[6-Chloro-2,4,8,18,22-pentaazatetracyclo[14.3.1.1(3,7).1(9,13)]docosa-1(20),3(22),4,6,9(21),10,12,16,18-nonaen-12-yl]-2-(1-isopropylpiperidin-4-yl)acetamide tris(trifluoroacetate)] |  |  |  |  | 38 | 46 | 117 | 68 | 18 |  |
| N#Cc1cc(F)c(Cl)nc1N1CCC(CC(=O)Nc2ccc3cc2CCc2cncc(c2)Nc2ncc(Cl)c(n2)N3)CC1 [Example A241, 2-[1-(6-Chloro-3-cyano-5-fluoropyridin-2-yl)piperidin-4-yl]-N-[6-chloro-2,4,8,18,22-pentaazatetracyclo[14.3.1.1(3,7).1(9,13)]docosa-1(20),3(22),4,6,9(21),10,12,16,18-nonaen-12-yl]acetamide tris(trifluoroacetate)] |  |  |  |  | 42 | > 400 | > 400 | > 400 | 14 |  |
| Cc1ccccc1NC(=O)N1CCC(CC(=O)Nc2ccc3cc2CCc2cncc(c2)Nc2ncc(Cl)c(n2)N3)CC1 [Example A149, 4-(2-{[6-Chloro-2,4,8,18,22-pentaazatetracyclo[14.3.1.1(3,7).1(9,13)]docosa-1(20),3(22),4,6,9(21),10,12,16,18-nonaen-12-yl]amino}-2-oxoethyl)-N-(2-methylphenyl)piperidine-1-carboxamide bis(trifluoroacetate)] |  |  |  |  | 0.5 | 3.1 | > 100 | 6.9 | 35 |  |
| O=C(CC1CCN(c2ccccc2)CC1)Nc1ccc2cc1CCc1cncc(c1)Nc1ncc(Cl)c(n1)N2 [Example A219, N-[6-Chloro-2,4,8,18,22-pentaazatetracyclo[14.3.1.1(3,7).1(9,13)]docosa-1(20),3(22),4,6,9(21),10,12,16,18-nonaen-12-yl]-2-(1-phenylpiperidin-4-yl)acetamide tris(trifluoroacetate)] |  |  |  |  | 12 | 90 | > 200 | 180 | 20 |  |
| Cc1oncc1S(=O)(=O)N1CCC(CC(=O)Nc2ccc3cc2CCc2cncc(c2)Nc2ncc(Cl)c(n2)N3)CC1 [Example A200, N-[6-Chloro-2,4,8,18,22-pentaazatetracyclo[14.3.1.1(3,7).1(9,13)]docosa-1(20),3(22),4,6,9(21),10,12,16,18-nonaen-12-yl]-2-{1-[(5-methylisoxazol-4-yl)sulfonyl]piperidin-4-yl}acetamide bis(trifluoroacetate)] |  |  |  |  | 8.5 | 101 | > 200 | > 200 | 25 |  |
| O=C(COc1ccc2cc1CCc1cncc(c1)Nc1ncc(Cl)c(n1)N2)N1CCn2c(nnc2C(F)(F)F)C1 [Example A249, 6-Chloro-12-{2-oxo-2-[3-(trifluoromethyl)-5,6-dihydro[1,2,4]triazolo[4,3-a]pyrazin-7(8H)-yl]ethoxy}-2,4,8,18,22pentaazatetracyclo[14.3.1.1(3,7).1(9,13)]docosa1(20),3(22),4,6,9(21),10,12,16,18-nonaene bis(trifluoroacetate)] |  |  |  |  | 226 | > 400 | > 400 | > 400 | 28 |  |

Second part, led by results:

| IC50 ([1]; Table B1) [nM] | IC50 ([2]; Table B1) [nM] | IC50 ([3]; Table B1) [nM] | IC50 ([4]; Table B1) [nM] | IC50 [1, 8] [nM] | IC50 [2, 9] [nM] | IC50 [3, 10] [nM] | IC50 [4] [nM] | ALK % of inhibition at a concentration of 500 nM or 1 mM [5, 11] [%] | SMILES | other results |
| --- | --- | --- | --- | --- | --- | --- | --- | --- | --- | --- |
| 13 | 7.7 | 42 | 21 |  |  |  |  |  | COc1ccccc1C(=O)Nc1ccc2cc1CCc1cccc(c1)Nc1ncc(Cl)c(n1)N2 [Example B36, N-[6-Chloro-2,4,8,22-tetraazatetracyclo[14.3.1.1(3,7).1(9,13)]docosa-1(20), 3(22),4,6,9(21),10,12,16,18-nonaen-12-yl]-2-methoxybenzamide trifluoroacetate] | IC50 [5, 6]: > 1000 nM |
| 44 | 85 | 376 | 288 |  |  |  |  |  | O=C(Nc1cccc(N2CCOCC2)n1)Nc1ccc2cc1CCc1cccc(c1)Nc1ncc(Cl)c(n1)N2 [Example B133, N-[6-Chloro-2,4,8,22-tetraazatetracyclo[14.3.1.1(3,7).1(9,13)]docosa-1(20), 3(22),4,6,9(21),10,12,16,18-nonaen-12-yl]-N′-(6-morpholin-4-ylpyridin-2-yl)urea bis(trifluoroacetate)] | ALK % of inhibition at a concentration of 500 nM or 1 mM [5, 7]: 2.5% |
| 2.8 | 10 | 76 | 30 |  |  |  |  |  | Cn1ccc2c(NC(=O)Nc3ccc4cc3CCc3cccc(c3)Nc3ncc(Cl)c(n3)N4)cccc21 [Example B125, N-[6-Chloro-2,4,8,22-tetraazatetracyclo[14.3.1.1(3,7).1(9,13)]docosa-1(20), 3(22),4,6,9(21),10,12,16,18-nonaen-12-yl]-N′-(1-methyl-1H-indol-4-yl)urea trifluoroacetate] | ALK % of inhibition at a concentration of 500 nM or 1 mM [5, 7]: 34% |
|  |  |  |  | 6.6 | 16 | 46 | 48 | 55 | COc1cccc(NC(=O)N2CCC(C(=O)Nc3ccc4cc3CCc3cccc(c3)Nc3ncc(Cl)c(n3)N4)CC2)c1 [Example A38, N(4)-[6-Chloro-2,4,8,22-tetraazatetracyclo[14.3.1.1(3,7).1(9,13)]docosa-1(20),3(22),4,6,9(21),10,12,16,18-nonaen-12-yl]-N(1)-(3-methoxyphenyl)piperidine-1,4-dicarboxamide trifluoroacetate] |  |
|  |  |  |  | 18 | 3.7 | 10 | 16 | 34 | NS(=O)(=O)N1CCC(C(=O)Nc2ccc3cc2CCc2cccc(c2)Nc2ncc(Cl)c(n2)N3)CC1 [Example A72, 1-(Aminosulfonyl)-N-[6-chloro-2,4,8,22-tetraazatetracyclo[14.3.1.1(3,7).1(9,13)]docosa-1(20),3(22),4,6,9(21),10,12,16,18-nonaen-12-yl]piperidine-4-carboxamide trifluoroacetate] |  |
| 0.69 | 1.8 | 13 | 9.2 |  |  |  |  |  | O=C(Nc1ccc2cc1CCc1cccc(c1)Nc1ncc(Cl)c(n1)N2)Nc1ccccc1OC(F)F [Example B128, N-[6-Chloro-2,4,8,22-tetraazatetracyclo[14.3.1.1(3,7).1(9,13)]docosa-1(20), 3(22),4,6,9(21),10,12,16,18-nonaen-12-yl]-N′-[2-(difluoromethoxy)phenyl]urea trifluoroacetate] | ALK % of inhibition at a concentration of 500 nM or 1 mM [5, 7]: 32% |
| 31 | 10 | 37 | 46 |  |  |  |  |  | CC(=O)N1CCN(Cc2ccc3cc2CCc2cccc(c2)Nc2ncc(Cl)c(n2)N3)CC1 [Example B225, 12-[(4-Acetylpiperazin-1-yl)methyl]-6-chloro-2,4,8,22-tetraazatetracyclo[14.3.1.1(3,7).1(9,13)]docosa-1(20),3(22),4,6,9(21),10,12,16,18-nonaene bis(trifluoroacetate)] | ALK % of inhibition at a concentration of 500 nM or 1 mM [5, 7]: 27% |
| 107 | 23 | 64 | 178 |  |  |  |  |  | NS(=O)(=O)c1cc2cc(c1)Nc1nc(ncc1Br)Nc1cccc(c1)CC2 [Example B18, 6-Bromo-2,4,8,22-tetraazatetracyclo[14.3.1.1(3,7).1(9,13)]docosa-1(20),3(22),4,6,9(21),10,12,16,18-nonaene-11-sulfonamide trifluoroacetate] | IC50 [5, 6]: > 1000 nM |
|  |  |  |  | 42 | 62 | 82 | 228 | 38 | O=C(Nc1ccc2cc1CCc1cccc(c1)Nc1ncc(Cl)c(n1)N2)C1CCN(C(=O)Cc2ccccc2)CC1 [Example A35, N-[6-Chloro-2,4,8,22-tetraazatetracyclo[14.3.1.1(3,7).1(9,13)]docosa-1(20),3(22),4,6,9(21),10,12,16,18-nonaen-12-yl]-1-(phenylacetyl)piperidine-4-carboxamide trifluoroacetate] |  |
